Data on twelve compounds can be found in patent US9669034B2, “4-aryl-N-phenyl-1,3,5-triazin-2-amines containing a sulfoximine group” (BAYER INTELLECTUAL PROPERTY GMBH, priority 2011, dated 2017).

Read-outs that look alike come from different tables or passages of the source.

For assay [1], the target named is CDK9/CycT1 (Homo sapiens (Human), UniProt P50750). Nature of the assay: CDK9/CycT1 kinase assay (TR-FRET). It is filed as biochemical. The conditions noted are these: Method 1. A digest of the protocol: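 Recombinant full-length His-tagged human CDK9/CycT1, insect-cell expressed and Ni-NTA purified. Substrate is a biotinylated peptide (biotin-Ttds-linked). Kinase inhibition is read out by TR-FRET.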

Assay [2] has as its target CDK2/CycE (Homo sapiens (Human), UniProt P24941). Nature of the assay: CDK2/CycE kinase assay (TR-FRET). The format is biochemical. The following applies: Method 2. A digest of the protocol:
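Enzyme was GST-tagged human CDK2 with GST-tagged human CycE, expressed in Sf9 insect cells and glutathione-affinity purified. The kinase reaction used a biotinylated peptide substrate, with inhibition measured by TR-FRET.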

For assay [3], the system named is HeLa human cervical tumour cells. Put plainly: Proliferation assay (crystal violet), HeLa. It is filed as cell-based. The conditions noted are these: Method 3, read-out: Inhibition of HeLa cell proliferation, IC50. The essentials: (§1)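 4-day compound exposure ([…]; DMSO 0.5%) starting 24 h post-plating. Densities: NCI-H460 and HeLa 3000, HeLa-MaTu-ADR 5000, Caco-2 1500 cells/well; 10% FCS. Glutaraldehyde fix, crystal violet stain, A595.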

The subject of assay [4] is HeLa-MaTu-ADR, multidrug-resistant human cervical carcinoma cells. Put plainly: Proliferation assay (crystal violet), HeLa-MaTu-ADR. The format is cell-based. The conditions noted are these: Method 3, read-out: Inhibition of HeLa/MaTu/ADR cell proliferation, IC50. The essentials:
as §1

Assay [5] concerns NCI-H460, human non-small cell lung carcinoma cells. Nature of the assay: Proliferation assay (crystal violet), NCI-H460. The format is cell-based. The following applies: Method 3, read-out: Inhibition of NCI-H460 cell proliferation, IC50. A digest of the protocol: as §1
Assay [6] relates to DU145, hormone-independent human prostate carcinoma cells. Nature of the assay: Proliferation assay (crystal violet), DU145. The format is cell-based. The following applies: Method 3, read-out: Inhibition of DU145 cell proliferation, IC50. The essentials:
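DU145 hormone-independent human prostate carcinoma cells (ATCC HTB-81) were seeded at 5000 cells/well in 96-well plates in 200 μL growth medium with 10% fetal calf serum. After 24 hours, a zero-point plate was stained. The other plates got fresh medium containing test substances ([…], 0.5% dimethylsulfoxide) and were incubated for 4 days.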

Assay [7] relates to Caco-2 human colorectal carcinoma. Nature of the assay: Proliferation assay (crystal violet), Caco-2. The format is cell-based. The following applies: Method 3, read-out: Inhibition of Caco-2 cell proliferation, IC50. A digest of the protocol: as §1
The test system of assay [8] is B16F10 mouse melanoma cells. Put plainly: Proliferation assay (crystal violet), B16F10. The following applies: Method 3, read-out: Inhibition of B16F10 cell proliferation, IC50. The format is cell-based. The essentials: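 B16F10 mouse melanoma cells (ATCC CRL-6475) were seeded at 1000 cells/well into 96-well plates in 200 μL growth medium containing 10% fetal calf serum. After 24 hours, one zero-point plate was stained with crystal violet. The remaining plates got fresh medium with test substances (0 M and […], 0.5% dimethylsulfoxide) and were incubated for 4 days.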

Where [9] appears, read: Homo sapiens, NCI-H460, NCI-H460 cells.
Setting [10] is: Homo sapiens, DU-145, DU145 cells.
Setting [11] is: Homo sapiens, Caco-2, Caco-2 cells.
The mark [12] stands for this setting: Mus musculus, B16-F10, B16F10 cells.

CDK9/CycT1, sequence (P50750 whole entry): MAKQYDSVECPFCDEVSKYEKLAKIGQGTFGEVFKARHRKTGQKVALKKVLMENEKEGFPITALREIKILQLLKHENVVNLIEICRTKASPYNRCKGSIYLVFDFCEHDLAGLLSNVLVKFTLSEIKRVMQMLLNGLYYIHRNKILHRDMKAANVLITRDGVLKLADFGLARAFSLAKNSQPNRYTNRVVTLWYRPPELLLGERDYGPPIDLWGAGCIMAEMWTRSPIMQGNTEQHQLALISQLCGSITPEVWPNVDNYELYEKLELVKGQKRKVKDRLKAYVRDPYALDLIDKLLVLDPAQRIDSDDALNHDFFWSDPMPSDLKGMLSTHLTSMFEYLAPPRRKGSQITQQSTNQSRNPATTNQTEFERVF
CDK9/CycT1, sequence (O60563 whole entry partner): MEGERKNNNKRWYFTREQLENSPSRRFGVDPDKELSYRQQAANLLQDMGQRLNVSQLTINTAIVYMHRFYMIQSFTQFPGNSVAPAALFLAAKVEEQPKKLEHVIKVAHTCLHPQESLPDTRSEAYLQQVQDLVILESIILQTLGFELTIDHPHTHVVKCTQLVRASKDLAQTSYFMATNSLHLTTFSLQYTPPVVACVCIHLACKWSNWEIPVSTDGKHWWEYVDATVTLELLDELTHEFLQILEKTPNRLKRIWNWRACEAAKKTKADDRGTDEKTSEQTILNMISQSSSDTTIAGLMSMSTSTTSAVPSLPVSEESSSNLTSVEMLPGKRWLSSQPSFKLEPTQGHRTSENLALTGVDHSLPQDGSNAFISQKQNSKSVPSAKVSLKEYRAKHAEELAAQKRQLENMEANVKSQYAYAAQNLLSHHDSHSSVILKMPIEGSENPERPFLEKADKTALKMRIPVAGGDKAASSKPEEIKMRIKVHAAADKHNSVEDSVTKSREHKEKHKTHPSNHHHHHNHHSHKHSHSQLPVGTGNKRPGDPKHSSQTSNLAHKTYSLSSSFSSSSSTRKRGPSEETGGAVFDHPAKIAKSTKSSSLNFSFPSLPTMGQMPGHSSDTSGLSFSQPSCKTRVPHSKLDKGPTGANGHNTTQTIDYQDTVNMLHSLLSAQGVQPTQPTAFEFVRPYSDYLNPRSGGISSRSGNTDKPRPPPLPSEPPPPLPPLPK

Consider `CS(=N)(=O)Cc1cccc(Nc2ncnc(-c3ccc(F)cc3OCc3cc(F)c(F)c(F)c3)n2)c1` (racemic) [Example 104, (rac)-4-{4-Fluoro-2-[(3,4,5-trifluorobenzyl)oxy]phenyl}-N-{3-[(S-methylsulfonimidoyl)methyl]phenyl}-1,3,5-triazin-2-amine], for which the IC50 in assay [1] was 2 nM; in assay [2] it was 54 nM; in assay [3] (Homo sapiens, HeLa) it was 110 nM; in assay [4] (Homo sapiens, HeLa), 240 nM; in assay [5] (setting [9]), 110 nM; in assay [6] (setting [10]), 120 nM. Moreover, the IC50 in assay [7] (setting [11]) turned out to be 150 nM; in assay [8] (setting [12]), 120 nM.
For the compound `COc1cc(F)ccc1-c1ncnc(Nc2cc(F)c(F)c(CS(C)(=O)=NC#N)c2)n1` (racemic) [Example 105, (rac)-[(2,3-Difluoro-5-{[4-(4-fluoro-2-methoxyphenyl)-1,3,5-triazin-2-yl]amino}benzyl)(methyl)-oxido-λ^6-sulfanylidene]cyanamide], the IC50 in assay [1] turned out to be 3 nM; in assay [2], 140 nM; in assay [3] (Homo sapiens, HeLa), 110 nM; in assay [4] (Homo sapiens, HeLa), 71 nM; in assay [5] (setting [9]) it was 130 nM; in assay [6] (setting [10]), 120 nM. The IC50 in assay [7] (setting [11]) turned out to be 81 nM; in assay [8] (setting [12]), 140 nM.
In the case of `CCS(=O)(Cc1cccc(Nc2ncnc(-c3ccc(F)cc3OC)n2)c1)=NC#N` (racemic) [Example 107, (rac)-[Ethyl(3-{[4-(4-fluoro-2-methoxyphenyl)-1,3,5-triazin-2-yl]amino}benzyl)oxido-λ^6-sulfanylidene]cyanamide], the IC50 in assay [1] is 4 nM; in assay [2], 360 nM; in assay [3] (Homo sapiens, HeLa), 230 nM; in assay [4] (Homo sapiens, HeLa), 340 nM; in assay [5] (setting [9]), 450 nM; in assay [6] (setting [10]), 280 nM. Also, the values for the IC50 in assay [7] (setting [11]) and in assay [8] (setting [12]) were 500 nM and 300 nM, respectively.
`COc1cc(F)ccc1-c1ncnc(Nc2cc(C)cc(CS(C)(=O)=NC#N)c2)n1` (racemic) [Example 111, (rac)-[(3-{[4-(4-Fluoro-2-methoxyphenyl)-1,3,5-triazin-2-yl]amino}-5-methylbenzyl)(methyl)oxido-λ^6-sulfanylidene]cyanamide]: the IC50 in assay [1] is 3 nM; in assay [2], 250 nM; in assay [3] (Homo sapiens, HeLa) it was 100 nM; in assay [4] (Homo sapiens, HeLa), 170 nM; in assay [5] (setting [9]), 270 nM; in assay [6] (setting [10]), 110 nM. The IC50 in assay [7] (setting [11]) is 220 nM; in assay [8] (setting [12]), 130 nM.
For `C=C(CO)COc1cc(F)ccc1-c1ncnc(Nc2cccc(CS(C)(=N)=O)c2)n1` (racemic) [Example 112, (rac)-2-({5-Fluoro-2-[4-({3-[(S-methylsulfonimidoyl)methyl]phenyl}amino)-1,3,5-triazin-2-yl]phenoxy}methyl)prop-2-en-1-ol], the IC50 was 4 nM in assay [1]; 730 nM in assay [2]; 330 nM in assay [3] (Homo sapiens, HeLa); 390 nM in assay [4] (Homo sapiens, HeLa); 320 nM in assay [5] (setting [9]); 300 nM in assay [6] (setting [10]). The IC50 in assay [7] (setting [11]) was determined as 350 nM; in assay [8] (setting [12]) it was 320 nM.
In the case of `CS(=N)(=O)Cc1cccc(Nc2ncnc(-c3ccc(F)cc3OCc3ccc(F)cc3)n2)c1` (single isomer, unassigned) [Example 56.a, 4-{4-Fluoro-2-[(4-fluorobenzyl)oxy]phenyl}-N-{3-[(S-methylsulfonimidoyl)methyl]phenyl}-1,3,5-triazin-2-amine], the IC50 in assay [1] was found to be 4 nM; in assay [2], 560 nM; in assay [3] (Homo sapiens, HeLa), 350 nM; in assay [4] (Homo sapiens, HeLa) it was 270 nM; in assay [5] (setting [9]), 340 nM; in assay [6] (setting [10]), 340 nM. Moreover, the IC50 in assay [7] (setting [11]) stood at 430 nM; in assay [8] (setting [12]), 340 nM.
Turning to `CS(=N)(=O)Cc1cccc(Nc2ncnc(-c3ccc(F)cc3OCc3ccc(F)cc3)n2)c1` (single isomer, unassigned) [Example 56.b, 4-{4-Fluoro-2-[(4-fluorobenzyl)oxy]phenyl}-N-{3-[(S-methylsulfonimidoyl)methyl]phenyl}-1,3,5-triazin-2-amine], the IC50 in assay [1] turned out to be 5 nM; in assay [2], 560 nM; in assay [3] it was 540 nM; in assay [4], 540 nM; in assay [5] (NCI-H460 cells), 470 nM; in assay [6] (DU145 cells), 400 nM. The IC50 in assay [7] (Caco-2 cells) was found to be 540 nM; in assay [8] (B16F10 cells) it was 390 nM.
For the compound `COc1cc(F)ccc1-c1ncnc(Nc2cc(F)cc(CS(C)(=O)=NC#N)c2)n1` (single isomer, unassigned) [Example 71, [(3-Fluoro-5-{[4-(4-fluoro-2-methoxyphenyl)-1,3,5-triazin-2-yl]amino}benzyl)(methyl)oxido-λ^6-sulfanylidene]cyanamide], the IC50 is 6 nM in assay [1]; 230 nM in assay [2]; 100 nM in assay [3] (Homo sapiens, HeLa); 120 nM in assay [4] (Homo sapiens, HeLa); 160 nM in assay [5] (setting [9]); 120 nM in assay [6] (setting [10]). Moreover, the figures for the IC50 in assay [7] (setting [11]) and in assay [8] (setting [12]) were 130 nM and 110 nM, respectively.
In the case of `COc1cc(F)ccc1-c1ncnc(Nc2cc(F)cc(CS(C)(=O)=NC#N)c2)n1` (single isomer, unassigned) [Example 72, [(3-Fluoro-5-{[4-(4-fluoro-2-methoxyphenyl)-1,3,5-triazin-2-yl]amino}benzyl)(methyl)oxido-λ^6-sulfanylidene]cyanamide], the IC50 in assay [1] was 5 nM; in assay [2] it was 240 nM; in assay [3], 71 nM; in assay [4], 120 nM; in assay [5] (NCI-H460 cells), 160 nM; in assay [6] (DU145 cells), 110 nM. For the same compound, the IC50 came out at 190 nM in assay [7] (Caco-2 cells) and 160 nM in assay [8] (B16F10 cells).
As to `CC#CCOc1cc(F)ccc1-c1ncnc(Nc2cccc(CS(C)(=N)=O)c2)n1` (single isomer, unassigned) [Example 74, 4-[2-(But-2-yn-1-yloxy)-4-fluorophenyl]-N-{3-[(S-methylsulfonimidoyl)methyl]phenyl}-1,3,5-triazin-2-amine], the IC50 turned out to be 3 nM in assay [1]; 590 nM in assay [2]; 310 nM in assay [3] (Homo sapiens, HeLa); 340 nM in assay [4] (Homo sapiens, HeLa); 330 nM in assay [5] (setting [9]); 360 nM in assay [6] (DU145 cells). Further, the IC50 in assay [7] (setting [11]) is 390 nM; in assay [8] (setting [12]), 340 nM.
`CC#CCOc1cc(F)ccc1-c1ncnc(Nc2cccc(CS(C)(=N)=O)c2)n1` (single isomer, unassigned) [Example 75, 4-[2-(But-2-yn-1-yloxy)-4-fluorophenyl]-N-{3-[(S-methylsulfonimidoyl)methyl]phenyl}-1,3,5-triazin-2-amine]: the IC50 in assay [1] was determined as 4 nM; in assay [2] it was 450 nM; in assay [3] it was 260 nM; in assay [4], 210 nM; in assay [5] (NCI-H460 cells) it was 220 nM; in assay [6] (DU145 cells), 170 nM. Besides, the IC50 came to 310 nM in assay [7] (Caco-2 cells) and 240 nM in assay [8] (B16F10 cells).
With `C#CCOc1cc(F)ccc1-c1ncnc(Nc2cccc(CS(C)(=N)=O)c2)n1` (single isomer, unassigned) [Example 78, 4-[4-Fluoro-2-(prop-2-yn-1-yloxy)phenyl]-N-{3-[(S-methylsulfonimidoyl)methyl]phenyl}-1,3,5-triazin-2-amine], the IC50 in assay [1] is 9 nM; in assay [2], 580 nM; in assay [3] (Homo sapiens, HeLa) it was 650 nM; in assay [4] (Homo sapiens, HeLa) it was 260 nM; in assay [5] (setting [9]), 390 nM; in assay [6] (setting [10]) it was 370 nM. Moreover, the IC50 in assay [7] (setting [11]) was 760 nM; in assay [8] (setting [12]), 500 nM.
